Converted amounts (≈) assume the structure as drawn.
Experiments:
Format in all cases: functional
Penicillium [1] = experiment: Antimicrobial activity against Penicillium wild strain assessed as diameter of growth inhibition zone at 250 ug/ml after 48-96 hr by agar cup diffusion method; conditions: read-out: DIZ
Penicillium [2] = experiment: Antimicrobial activity against Penicillium wild strain assessed as diameter of growth inhibition zone at 100 ug/ml after 48-96 hr by agar cup diffusion method; conditions: read-out: DIZ
Trichophyton rubrum [3] = experiment: Antimicrobial activity against Trichophyton rubrum MTCC 296 assessed as diameter of growth inhibition zone at 100 ug/ml after 48-96 hr by agar cup diffusion method; conditions: read-out: DIZ
Aspergillus clavatus [4] = experiment: Antimicrobial activity against Aspergillus clavatus MTCC 1323 assessed as diameter of growth inhibition zone at 100 ug/ml after 48-96 hr by agar cup diffusion method; conditions: read-out: DIZ
Candida albicans [5] = experiment: Antimicrobial activity against Candida albicans MTCC 227 assessed as diameter of growth inhibition zone at 100 ug/ml after 48-96 hr by agar cup diffusion method; conditions: read-out: DIZ
Penicillium [6] = experiment: Antimicrobial activity against Penicillium wild strain assessed as diameter of growth inhibition zone at 50 ug/ml after 48-96 hr by agar cup diffusion method; conditions: read-out: DIZ
Trichophyton rubrum [7] = experiment: Antimicrobial activity against Trichophyton rubrum MTCC 296 assessed as diameter of growth inhibition zone at 50 ug/ml after 48-96 hr by agar cup diffusion method; conditions: read-out: DIZ
Aspergillus clavatus [8] = experiment: Antimicrobial activity against Aspergillus clavatus MTCC 1323 assessed as diameter of growth inhibition zone at 50 ug/ml after 48-96 hr by agar cup diffusion method; conditions: read-out: DIZ
Candida albicans [9] = experiment: Antimicrobial activity against Candida albicans MTCC 227 assessed as diameter of growth inhibition zone at 50 ug/ml after 48-96 hr by agar cup diffusion method; conditions: read-out: DIZ
Penicillium [10] = experiment: Antimicrobial activity against Penicillium wild strain assessed as diameter of growth inhibition zone at 25 ug/ml after 48-96 hr by agar cup diffusion method; conditions: read-out: DIZ
Trichophyton rubrum [11] = experiment: Antimicrobial activity against Trichophyton rubrum MTCC 296 assessed as diameter of growth inhibition zone at 25 ug/ml after 48-96 hr by agar cup diffusion method; conditions: read-out: DIZ
Aspergillus clavatus [12] = experiment: Antimicrobial activity against Aspergillus clavatus MTCC 1323 assessed as diameter of growth inhibition zone at 25 ug/ml after 48-96 hr by agar cup diffusion method; conditions: read-out: DIZ
Candida albicans [13] = experiment: Antimicrobial activity against Candida albicans MTCC 227 assessed as diameter of growth inhibition zone at 25 ug/ml after 48-96 hr by agar cup diffusion method; conditions: read-out: DIZ
Penicillium [14] = experiment: Antimicrobial activity against Penicillium wild strain by agar cup diffusion method
Aspergillus clavatus [15] = experiment: Antimicrobial activity against Aspergillus clavatus MTCC 1323 by agar cup diffusion method
Pseudomonas aeruginosa [16] = experiment: Antimicrobial activity against Pseudomonas aeruginosa MTCC 1688 assessed as diameter of growth inhibition zone at 25 ug/ml after 18-24 hr by agar cup diffusion method; conditions: read-out: DIZ
Escherichia coli [17] = experiment: Antimicrobial activity against Escherichia coli MTCC 443 assessed as diameter of growth inhibition zone at 25 ug/ml after 18-24 hr by agar cup diffusion method; conditions: read-out: DIZ
Staphylococcus aureus [18] = experiment: Antimicrobial activity against Staphylococcus aureus MTCC 96 assessed as diameter of growth inhibition zone at 25 ug/ml after 18-24 hr by agar cup diffusion method; conditions: read-out: DIZ
Streptococcus pyogenes [19] = experiment: Antimicrobial activity against Streptococcus pyogenes MTCC 442 assessed as diameter of growth inhibition zone at 25 ug/ml after 18-24 hr by agar cup diffusion method; conditions: read-out: DIZ
Klebsiella pneumoniae [20] = experiment: Antimicrobial activity against Klebsiella pneumoniae MTCC 109 by agar cup diffusion method
Escherichia coli [21] = experiment: Antimicrobial activity against Escherichia coli MTCC 443 by agar cup diffusion method
Pseudomonas aeruginosa [22] = experiment: Antimicrobial activity against Pseudomonas aeruginosa MTCC 1688 by agar cup diffusion method
Staphylococcus aureus [23] = experiment: Antimicrobial activity against Staphylococcus aureus MTCC 96 by agar cup diffusion method
Streptococcus pyogenes [24] = experiment: Antimicrobial activity against Streptococcus pyogenes MTCC 442 by agar cup diffusion method
Trichophyton rubrum [25] = experiment: Antimicrobial activity against Trichophyton rubrum MTCC 296 by agar cup diffusion method
Candida albicans [26] = experiment: Antimicrobial activity against Candida albicans MTCC 227 by agar cup diffusion method
Klebsiella pneumoniae [27] = experiment: Antimicrobial activity against Klebsiella pneumoniae MTCC 109 assessed as diameter of growth inhibition zone at 250 ug/ml after 18-24 hr by agar cup diffusion method; conditions: read-out: DIZ
Pseudomonas aeruginosa [28] = experiment: Antimicrobial activity against Pseudomonas aeruginosa MTCC 1688 assessed as diameter of growth inhibition zone at 250 ug/ml after 18-24 hr by agar cup diffusion method; conditions: read-out: DIZ
Escherichia coli [29] = experiment: Antimicrobial activity against Escherichia coli MTCC 443 assessed as diameter of growth inhibition zone at 250 ug/ml after 18-24 hr by agar cup diffusion method; conditions: read-out: DIZ
Staphylococcus aureus [30] = experiment: Antimicrobial activity against Staphylococcus aureus MTCC 96 assessed as diameter of growth inhibition zone at 250 ug/ml after 18-24 hr by agar cup diffusion method; conditions: read-out: DIZ
Streptococcus pyogenes [31] = experiment: Antimicrobial activity against Streptococcus pyogenes MTCC 442 assessed as diameter of growth inhibition zone at 250 ug/ml after 18-24 hr by agar cup diffusion method; conditions: read-out: DIZ
Klebsiella pneumoniae [32] = experiment: Antimicrobial activity against Klebsiella pneumoniae MTCC 109 assessed as diameter of growth inhibition zone at 100 ug/ml after 18-24 hr by agar cup diffusion method; conditions: read-out: DIZ
Pseudomonas aeruginosa [33] = experiment: Antimicrobial activity against Pseudomonas aeruginosa MTCC 1688 assessed as diameter of growth inhibition zone at 100 ug/ml after 18-24 hr by agar cup diffusion method; conditions: read-out: DIZ
Escherichia coli [34] = experiment: Antimicrobial activity against Escherichia coli MTCC 443 assessed as diameter of growth inhibition zone at 100 ug/ml after 18-24 hr by agar cup diffusion method; conditions: read-out: DIZ
Staphylococcus aureus [35] = experiment: Antimicrobial activity against Staphylococcus aureus MTCC 96 assessed as diameter of growth inhibition zone at 100 ug/ml after 18-24 hr by agar cup diffusion method; conditions: read-out: DIZ
Streptococcus pyogenes [36] = experiment: Antimicrobial activity against Streptococcus pyogenes MTCC 442 assessed as diameter of growth inhibition zone at 100 ug/ml after 18-24 hr by agar cup diffusion method; conditions: read-out: DIZ
Klebsiella pneumoniae [37] = experiment: Antimicrobial activity against Klebsiella pneumoniae MTCC 109 assessed as diameter of growth inhibition zone at 50 ug/ml after 18-24 hr by agar cup diffusion method; conditions: read-out: DIZ
Pseudomonas aeruginosa [38] = experiment: Antimicrobial activity against Pseudomonas aeruginosa MTCC 1688 assessed as diameter of growth inhibition zone at 50 ug/ml after 18-24 hr by agar cup diffusion method; conditions: read-out: DIZ
Escherichia coli [39] = experiment: Antimicrobial activity against Escherichia coli MTCC 443 assessed as diameter of growth inhibition zone at 50 ug/ml after 18-24 hr by agar cup diffusion method; conditions: read-out: DIZ
Staphylococcus aureus [40] = experiment: Antimicrobial activity against Staphylococcus aureus MTCC 96 assessed as diameter of growth inhibition zone at 50 ug/ml after 18-24 hr by agar cup diffusion method; conditions: read-out: DIZ
Streptococcus pyogenes [41] = experiment: Antimicrobial activity against Streptococcus pyogenes MTCC 442 assessed as diameter of growth inhibition zone at 50 ug/ml after 18-24 hr by agar cup diffusion method; conditions: read-out: DIZ
Klebsiella pneumoniae [42] = experiment: Antimicrobial activity against Klebsiella pneumoniae MTCC 109 assessed as diameter of growth inhibition zone at 25 ug/ml after 18-24 hr by agar cup diffusion method; conditions: read-out: DIZ
Trichophyton rubrum [43] = experiment: Antimicrobial activity against Trichophyton rubrum MTCC 296 assessed as diameter of growth inhibition zone at 250 ug/ml after 48-96 hr by agar cup diffusion method; conditions: read-out: DIZ
Aspergillus clavatus [44] = experiment: Antimicrobial activity against Aspergillus clavatus MTCC 1323 assessed as diameter of growth inhibition zone at 250 ug/ml after 48-96 hr by agar cup diffusion method; conditions: read-out: DIZ
Candida albicans [45] = experiment: Antimicrobial activity against Candida albicans MTCC 227 assessed as diameter of growth inhibition zone at 250 ug/ml after 48-96 hr by agar cup diffusion method; conditions: read-out: DIZ

Structure (SMILES): O=C(/C=C/c1ccc(Cl)cc1)C1C(=O)NC(=S)NC1=O
- zone of inhibition at 250 µg/mL (Penicillium [1]): 25 mm
- zone of inhibition at 100 µg/mL (Penicillium [2]): 23 mm
- zone of inhibition at 100 µg/mL (Trichophyton rubrum [3]): 21 mm
- zone of inhibition at 100 µg/mL (Aspergillus clavatus [4]): 22 mm
- zone of inhibition at 100 µg/mL (Candida albicans [5]): 22 mm
- zone of inhibition at 50 µg/mL (Penicillium [6]): 22 mm
- zone of inhibition at 50 µg/mL (Trichophyton rubrum [7]): 20 mm
- zone of inhibition at 50 µg/mL (Aspergillus clavatus [8]): 20 mm
- zone of inhibition at 50 µg/mL (Candida albicans [9]): 21 mm
- zone of inhibition at 25 µg/mL (Penicillium [10]): 19 mm
- zone of inhibition at 25 µg/mL (Trichophyton rubrum [11]): 18 mm
- zone of inhibition at 25 µg/mL (Aspergillus clavatus [12]): 18 mm
- zone of inhibition at 25 µg/mL (Candida albicans [13]): 20 mm
- MFC (Penicillium [14]): > 1000 µg/mL
- MIC (Penicillium [14]): > 1000 µg/mL
- MFC (Aspergillus clavatus [15]): 500 µg/mL (≈ 1620 µM)
- MIC (Aspergillus clavatus [15]): 500 µg/mL (≈ 1620 µM)
- zone of inhibition at 25 µg/mL (Pseudomonas aeruginosa [16]): 11 mm
- zone of inhibition at 25 µg/mL (Escherichia coli [17]): 11 mm
- zone of inhibition at 25 µg/mL (Staphylococcus aureus [18]): 11 mm
- zone of inhibition at 25 µg/mL (Streptococcus pyogenes [19]): 11 mm
- MBC (Klebsiella pneumoniae [20]): 125 µg/mL (≈ 405 µM)
- MIC (Klebsiella pneumoniae [20]): 100 µg/mL (≈ 324 µM)
- MBC (Escherichia coli [21]): 125 µg/mL (≈ 405 µM)
- MIC (Escherichia coli [21]): 125 µg/mL (≈ 405 µM)
- MBC (Pseudomonas aeruginosa [22]): 250 µg/mL (≈ 810 µM)
- MIC (Pseudomonas aeruginosa [22]): 200 µg/mL (≈ 648 µM)
- MBC (Staphylococcus aureus [23]): 100 µg/mL (≈ 324 µM)
- MIC (Staphylococcus aureus [23]): 100 µg/mL (≈ 324 µM)
- MBC (Streptococcus pyogenes [24]): 125 µg/mL (≈ 405 µM)
- MIC (Streptococcus pyogenes [24]): 100 µg/mL (≈ 324 µM)
- MFC (Trichophyton rubrum [25]): > 1000 µg/mL
- MIC (Trichophyton rubrum [25]): > 1000 µg/mL
- MFC (Candida albicans [26]): 500 µg/mL (≈ 1620 µM)
- MIC (Candida albicans [26]): 500 µg/mL (≈ 1620 µM)
- zone of inhibition at 250 µg/mL (Klebsiella pneumoniae [27]): 20 mm
- zone of inhibition at 250 µg/mL (Pseudomonas aeruginosa [28]): 15 mm
- zone of inhibition at 250 µg/mL (Escherichia coli [29]): 19 mm
- zone of inhibition at 250 µg/mL (Staphylococcus aureus [30]): 15 mm
- zone of inhibition at 250 µg/mL (Streptococcus pyogenes [31]): 19 mm
- zone of inhibition at 100 µg/mL (Klebsiella pneumoniae [32]): 17 mm
- zone of inhibition at 100 µg/mL (Pseudomonas aeruginosa [33]): 13 mm
- zone of inhibition at 100 µg/mL (Escherichia coli [34]): 17 mm
- zone of inhibition at 100 µg/mL (Staphylococcus aureus [35]): 13 mm
- zone of inhibition at 100 µg/mL (Streptococcus pyogenes [36]): 17 mm
- zone of inhibition at 50 µg/mL (Klebsiella pneumoniae [37]): 15 mm
- zone of inhibition at 50 µg/mL (Pseudomonas aeruginosa [38]): 12 mm
- zone of inhibition at 50 µg/mL (Escherichia coli [39]): 14 mm
- zone of inhibition at 50 µg/mL (Staphylococcus aureus [40]): 12 mm
- zone of inhibition at 50 µg/mL (Streptococcus pyogenes [41]): 14 mm
- zone of inhibition at 25 µg/mL (Klebsiella pneumoniae [42]): 13 mm
- zone of inhibition at 250 µg/mL (Trichophyton rubrum [43]): 22 mm
- zone of inhibition at 250 µg/mL (Aspergillus clavatus [44]): 22 mm
- zone of inhibition at 250 µg/mL (Candida albicans [45]): 23 mm

Source: ChEMBL document CHEMBL3044736, “Synthesis, characterization, solvatochromic properties, and antimicrobial evaluation of 5-acetyl-2-thioxo-dihydro-pyrimidine-4,6-dione-based chalcones” (2013)
